{
  "source": "paper PMC12172621",
  "about": "(ACS chemical neuroscience, 2024)",
  "key": {"[1]": {"molecular_target": "sigma-2 receptor (σ2R, Tmem97) (Homo sapiens, UniProt Q5BJF2)", "sequence (Q5BJF2 whole entry, species assumed)": "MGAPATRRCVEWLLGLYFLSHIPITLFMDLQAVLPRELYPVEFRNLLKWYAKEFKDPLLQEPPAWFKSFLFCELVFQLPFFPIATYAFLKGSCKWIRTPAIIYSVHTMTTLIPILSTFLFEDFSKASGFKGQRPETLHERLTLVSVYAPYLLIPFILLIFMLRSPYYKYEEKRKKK", "test": "biochemical", "assay_type": "binding"}, "[2]": {"molecular_target": "sigma-1 receptor (σ1R, Sigmar1) (Homo sapiens, UniProt Q99720)", "sequence (Q99720 whole entry, species assumed)": "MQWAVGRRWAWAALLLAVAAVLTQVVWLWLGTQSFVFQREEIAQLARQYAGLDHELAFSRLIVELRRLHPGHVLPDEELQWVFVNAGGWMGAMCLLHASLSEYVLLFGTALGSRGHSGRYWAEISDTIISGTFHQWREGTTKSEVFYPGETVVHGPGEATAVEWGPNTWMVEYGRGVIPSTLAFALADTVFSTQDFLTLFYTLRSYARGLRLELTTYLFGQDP", "test": "biochemical", "assay_type": "binding"}, "[3]": {"system": "PK-resistant PrP in Rosa26-targeted ScN2a cells", "assay_type": "cell-based, mouse"}, "[4]": {"system": "PK-resistant PrP in Sigmar1 + Tmem97 KO cells", "assay_type": "cell-based, mouse"}, "[5]": {"system": "seeding activity of RML prions on recombinant bank vole PrP", "assay_type": "biochemical", "settings": "2× the EC50 (79 μM)"}, "[6]": {"system": "PK-resistant PrP in Hrh1^0/0 cells"}, "[7]": {"settings": "cited from earlier work"}, "in vitro": {"test": "in vitro", "settings": "mouse"}, "[8]": {"system": "PK-resistant PrP (PrP^Sc) in ScN2a-RML cells", "assay_type": "cell-based, mouse", "settings": "read-out: EC50, effective concentration for 50% reduction of PrP^Sc levels in ScN2a-RML cells"}, "[9]": {"system": "total PrP (PrP^C) in uninfected N2a cells", "assay_type": "cell-based, mouse"}, "[10]": {"system": "cultured hippocampal neurons exposed to purified RML PrP^Sc", "assay_type": "cell-based"}, "[11]": {"system": "PK-resistant PrP in N2a cells chronically infected with 22L prions", "assay_type": "cell-based, mouse"}},
  "note": "Where “and” joins values, the source holds several entries; their conditions need not be identical. Equal entries are not always repeated. Where two headings read alike, the source gives them in different places.",
  "data": [
    {"smiles": "CN(C)CC1CCOC1(c1ccccc1)c1ccccc1", "note": "(stereo not drawn) [ANAVEX2–73, Blarcamesine]", "values": [
      {"measurement": "Ki", "setting": "[1]", "value": 2.03, "unit": "µM"},
      {"measurement": "Ki", "setting": "[2]", "value": 0.442, "unit": "µM"},
      {"measurement": "Selectivity for σ1R (σ1R/σ2R)", "setting": "[2]", "value": "σ1R (4.5 x)"},
      {"measurement": "Levels of PK-resistant PrP relative to DMSO-treated controls", "setting": "[3]", "value": "70.4 ± 1.1% and 42.6 ± 1.7%"},
      {"measurement": "Levels of PK-resistant PrP relative to DMSO-treated controls", "setting": "[4]; 39.5 μM", "value": "57.9 ± 9.0", "unit": "%"},
      {"measurement": "Lag phase in RT-QuIC", "setting": "[5]", "value": "slight increase in the lag phase"},
      {"measurement": "TI, therapeutic index (LC50/EC50)", "setting": "ScN2a-RML cells; mouse", "value": ">1.3"},
      {"measurement": "Levels of PK-resistant PrP relative to DMSO-treated controls", "setting": "[6]", "value": "25.7 ± 6.2", "unit": "%"},
      {"measurement": "Tolerability in phase II trials", "setting": "[7]; Alzheimer’s and Parkinson’s diseases", "value": "well tolerated"},
      {"measurement": "CC50", "setting": "in vitro", "value": "> 50", "unit": "µM"}
    ]},
    {"smiles": "COc1cccc2c1CCCC2CCCN1CCN(C2CCCCC2)CC1", "note": "(stereo not drawn) [PB-28]", "values": [
      {"measurement": "EC50", "setting": "[8]", "value": 5.1, "unit": "µM"},
      {"measurement": "Levels of total PrP compared to DMSO treatment", "setting": "[9]", "value": "85.3 ± 3.4", "unit": "%"},
      {"measurement": "[SRA]min, minimum concentration capable of preventing hippocampal spine retraction", "setting": "[10]", "value": 0.1, "unit": "µM"},
      {"measurement": "CC50", "setting": "ScN2a-RML cells", "value": 7.8, "unit": "µM"}
    ]},
    {"smiles": "COc1ccc(CCN2CCN(CCCc3ccccc3)CC2)cc1OC", "note": "[SA 4503, Cutamesine]", "values": [
      {"measurement": "Ki", "setting": "[1]; read-out: Kiσ2R", "value": 0.0175, "unit": "µM"},
      {"measurement": "EC50", "setting": "[8]", "value": 27.2, "unit": "µM"},
      {"measurement": "CC50", "setting": "ScN2a-RML cells", "value": "> 50", "unit": "µM"},
      {"measurement": "Tolerability in phase II trial", "setting": "[7]; ischemic stroke", "value": "well tolerated"}
    ]},
    {"smiles": "CC(C)=CCN1CC[C@]2(C)c3cc(O)ccc3C[C@H]1[C@H]2C", "note": "[(+)-pentazocine]", "values": [
      {"measurement": "CC50", "setting": "in vitro", "value": "> 50", "unit": "µM"}
    ]},
    {"smiles": "Cc1ccccc1NC(=N)Nc1ccccc1C", "note": "[DTG, ditolylguanidine]", "values": [
      {"measurement": "CC50", "setting": "in vitro", "value": "> 50", "unit": "µM"}
    ]},
    {"smiles": "CN(C)CCN(C)CCc1ccc(Cl)c(Cl)c1", "note": "[BD1047]", "values": [
      {"measurement": "Ki", "setting": "[1]; read-out: Kiσ2R", "value": 0.013, "unit": "µM"},
      {"measurement": "EC50", "setting": "[8]", "value": 19, "unit": "µM"},
      {"measurement": "Levels of total PrP compared to DMSO treatment", "setting": "[9]; 19 μM", "value": "94.9 ± 0.9", "unit": "%"},
      {"measurement": "Mean number of dendritic spines/μm", "setting": "[10]", "value": "0.74 ± 0.02 spines/μm and 0.78 ± 0.04 spines/μm"},
      {"measurement": "[SRA]min, minimum concentration capable of preventing hippocampal spine retraction", "setting": "[10]", "value": 0.5, "unit": "µM"},
      {"measurement": "CC50", "setting": "ScN2a-RML cells", "value": "> 25", "unit": "µM"}
    ]},
    {"smiles": "CCCCc1oc2ccccc2c1C(=O)c1cc(I)c(OCCN(CC)CC)c(I)c1", "note": "[amiodarone]", "values": [
      {"measurement": "Ki", "setting": "[1]", "value": 0.171, "unit": "µM"}
    ]},
    {"smiles": "CN1CCN(CCc2ccc(Cl)c(Cl)c2)CC1", "note": "[BD1063]", "values": [
      {"measurement": "Ki", "setting": "[1]; read-out: Kiσ2R", "value": 0.123, "unit": "µM"},
      {"measurement": "Selectivity for σ1R (σ1R/σ2R)", "setting": "[2]", "value": "σ1R (45.7 x)"},
      {"measurement": "Ki", "setting": "[2]; read-out: Kiσ1R", "value": 0.0027, "unit": "µM"},
      {"measurement": "EC50", "setting": "[8]", "value": 12.3, "unit": "µM"},
      {"measurement": "Levels of PK-resistant PrP relative to DMSO-treated controls", "setting": "[4]", "value": "60.3 ± 4.0", "unit": "%"},
      {"measurement": "Levels of total PrP compared to DMSO treatment", "setting": "[9]; 12.3 μM", "value": "85.8 ± 4.4", "unit": "%"},
      {"measurement": "Levels of PK-resistant PrP relative to DMSO treatment", "setting": "[11]", "value": "63.3 ± 1.2", "unit": "%"},
      {"measurement": "Mean number of dendritic spines/μm", "setting": "[10]", "value": "0.69 ± 0.03 spines/μm and 0.63 ± 0.03 spines/μm"},
      {"measurement": "[SRA]min, minimum concentration capable of preventing hippocampal spine retraction", "setting": "[10]", "value": 1, "unit": "µM"},
      {"measurement": "CC50", "setting": "ScN2a-RML cells", "value": "> 50", "unit": "µM"},
      {"measurement": "TI, therapeutic index (LC50/EC50)", "setting": "ScN2a-RML cells", "value": ">4.1"},
      {"measurement": "Levels of PK-resistant PrP relative to DMSO-treated controls", "setting": "[6]", "value": "42.6 ± 6.7", "unit": "%"}
    ]},
    {"smiles": "OC(CCCN1CCN(c2ncc(F)cn2)CC1)c1ccc(F)cc1", "note": "(stereo not drawn) [BMY-14802]", "values": [
      {"measurement": "CC50", "setting": "in vitro", "value": "> 50", "unit": "µM"}
    ]},
    {"smiles": "O=C(CCCN1CCC(O)(c2ccc(Cl)cc2)CC1)c1ccc(F)cc1", "note": "[haloperidol]", "values": [
      {"measurement": "Levels of total PrP compared to DMSO treatment", "setting": "[9]", "value": "92.0 ± 3.5", "unit": "%"},
      {"measurement": "Mean number of dendritic spines/μm", "setting": "[10]", "value": "0.85 ± 0.03 spines/μm and 0.73 ± 0.04 spines/μm"}
    ]},
    {"smiles": "C[C@@H]1CN(CCCn2c3ccccc3c3ccccc32)C[C@H](C)N1", "note": "[rimcazole]", "values": [
      {"measurement": "Ki", "setting": "[1]", "value": 0.0496, "unit": "µM"},
      {"measurement": "Mean number of dendritic spines/μm", "setting": "[10]", "value": "0.86 ± 0.02 spines/μm and 0.82 ± 0.02 spines/μm"},
      {"measurement": "[SRA]min, minimum concentration capable of preventing hippocampal spine retraction", "setting": "[10]", "value": 0.5, "unit": "µM"},
      {"measurement": "CC50", "setting": "in vitro", "value": 10, "unit": "µM"}
    ]},
    {"smiles": "CCCN1CCC=C(c2cc(-c3ccc(C)cc3)no2)C1", "note": "[PD 144418]", "values": [
      {"measurement": "Ki", "setting": "[1]; read-out: Kiσ2R", "value": 0.351, "unit": "µM"},
      {"measurement": "Selectivity for σ1R (σ1R/σ2R)", "setting": "[2]", "value": "σ1R (319.1 x)"},
      {"measurement": "Ki", "setting": "[2]; read-out: Kiσ1R", "value": 0.0011, "unit": "µM"},
      {"measurement": "EC50", "setting": "[8]", "value": 5.2, "unit": "µM"},
      {"measurement": "Levels of PK-resistant PrP relative to DMSO-treated controls", "setting": "[3]", "value": "81.1 ± 5.0", "unit": "%"},
      {"measurement": "Levels of PK-resistant PrP relative to DMSO-treated controls", "setting": "[4]", "value": "56.6 ± 5.8", "unit": "%"},
      {"measurement": "Levels of total PrP compared to DMSO treatment", "setting": "[9]", "value": "97.5 ± 4.8", "unit": "%"},
      {"measurement": "EC50", "setting": "[11]; read-out: EC50 against 22L prions", "value": 12.6, "unit": "µM"},
      {"measurement": "[SRA]min, minimum concentration capable of preventing hippocampal spine retraction", "setting": "[10]", "value": 10, "unit": "µM"},
      {"measurement": "CC50", "setting": "ScN2a-RML cells", "value": "> 22", "unit": "µM"},
      {"measurement": "TI, therapeutic index (LC50/EC50)", "setting": "ScN2a-RML cells", "value": ">4.2"}
    ]}
  ]
}
